17 compounds from ChEMBL document CHEMBL4177637, “Proapoptotic modification of substituted isoindolinones as MDM2-p53 inhibitors” (2017) can be followed below.

Each structure is given as a SMILES string. Active and inactive are the calls of the source. The calls are words filed in the database; no cut-off is given here.

The test system of experiment [1] is HCT-116. Briefly: Growth inhibition of human HCT116 cells harboring p53+/+ after 48 hrs by Hoechst 33258 staining based fluorescence assay. It counts as functional. The settings on record: HCT-116, 48 h.
Experiment [2] concerns HCT-116. Briefly: Growth inhibition of human p53 knockdown HCT116 cells after 48 hrs by Hoechst 33258 staining based fluorescence assay. It counts as functional. The settings on record: HCT-116, 48 h.
Experiment [3] deals with HCT-116. Put plainly: Selectivity ratio of GI50 for human p53 knockdown HCT116 cells to GI50 for human HCT116 cells harboring p53+/+. It counts as functional.
The target in experiment [4] is Tumour suppressor p53/oncoprotein Mdm2 (Homo sapiens) (UniProt P04637+Q00987). Put plainly: Inhibition of MDM2/p53 in human HCT116 cells at 10 uM after 24 hrs by Western blot method. It is filed as cell-based.
Sequence of Tumour suppressor p53/oncoprotein Mdm2 (Homo sapiens) (P04637 whole entry, looked up): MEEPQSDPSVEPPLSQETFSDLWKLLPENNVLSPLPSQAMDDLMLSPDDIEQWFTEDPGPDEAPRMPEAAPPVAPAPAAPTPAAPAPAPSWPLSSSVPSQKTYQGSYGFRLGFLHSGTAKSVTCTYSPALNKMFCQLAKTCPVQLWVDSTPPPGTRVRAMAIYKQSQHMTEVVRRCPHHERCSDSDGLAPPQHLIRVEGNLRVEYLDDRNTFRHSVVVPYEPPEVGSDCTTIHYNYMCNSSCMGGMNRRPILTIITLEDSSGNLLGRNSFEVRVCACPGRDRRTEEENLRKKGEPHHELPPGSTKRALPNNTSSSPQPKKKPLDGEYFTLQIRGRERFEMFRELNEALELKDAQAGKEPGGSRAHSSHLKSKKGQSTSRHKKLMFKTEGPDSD
Sequence of Tumour suppressor p53/oncoprotein Mdm2 (Homo sapiens) (Q00987 whole entry, looked up): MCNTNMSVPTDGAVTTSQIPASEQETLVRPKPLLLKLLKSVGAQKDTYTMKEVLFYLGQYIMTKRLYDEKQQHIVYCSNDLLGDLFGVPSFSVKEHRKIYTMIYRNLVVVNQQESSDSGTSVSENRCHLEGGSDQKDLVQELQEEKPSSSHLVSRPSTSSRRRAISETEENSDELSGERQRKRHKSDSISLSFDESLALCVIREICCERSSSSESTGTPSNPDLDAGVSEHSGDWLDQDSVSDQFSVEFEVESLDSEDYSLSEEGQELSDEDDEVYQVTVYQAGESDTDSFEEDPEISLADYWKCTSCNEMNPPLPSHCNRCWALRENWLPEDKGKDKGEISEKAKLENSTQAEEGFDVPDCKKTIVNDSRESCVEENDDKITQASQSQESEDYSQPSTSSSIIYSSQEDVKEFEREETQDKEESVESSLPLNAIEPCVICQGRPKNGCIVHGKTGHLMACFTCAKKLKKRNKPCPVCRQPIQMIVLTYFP
For a further experiment, the system named is U2OS. Briefly: Induction of apoptosis in human U2OS cells at 10 uM after 24 hrs by Annexin V-FITC/propidium iodide based FACS analysis (Rvb= 0.1%). It counts as functional. (Flow cytometry measures light scatter and fluorescence of single cells or particles in a stream.)

A word on the GI50: it is the concentration giving 50% growth inhibition. On to `CC(=O)OCCCOC1(c2ccc(Cl)cc2)c2ccccc2C(=O)N1Cc1ccccc1` (stereo not given), for which the concentration for 50% growth inhibition (GI50) in the experiment with HCT-116 [1] was determined as 50 µM; in the experiment with HCT-116 [2], 80 µM.
The matching figures for `CC(C)[C@H](N)C(=O)OCC(C)(C)COC1(c2ccc(Cl)cc2)c2ccccc2C(=O)N1Cc1ccc(Cl)cc1` (stereo not given in full): 11 µM and 40 µM.
As to `CC(C)(COC(=O)[C@@H](N)c1ccccc1)COC1(c2ccc(Cl)cc2)c2ccccc2C(=O)N1Cc1ccccc1` (stereo not given in full), the GI50 in the experiment with HCT-116 [1] was 15 µM; in the experiment on HCT-116 [2], 44 µM.
Turning to `CC(C)[C@H](N)C(=O)OCCCOC1(c2ccc(Cl)cc2)c2ccccc2C(=O)N1Cc1ccc(Cl)cc1` (stereo not given in full), the GI50 was 16 µM in the experiment with HCT-116 [1] and 60 µM with HCT-116 [2].
Turning to `CC(C)[C@H](N)C(=O)OCC(C)(C)COC1(c2ccc(Cl)cc2)c2ccccc2C(=O)N1Cc1ccccc1` (stereo not given in full), the GI50 in the experiment on HCT-116 [1] is 20 µM; in the experiment on HCT-116 [2], 65 µM.
As for `CC(C)(COC(=O)[C@@H](N)c1ccccc1)COC1(c2ccc(Cl)cc2)c2ccccc2C(=O)N1Cc1ccc(Cl)cc1` (stereo not given in full), the GI50 came out at 8 µM in the experiment with HCT-116 [1] and 38 µM with HCT-116 [2]. In the experiment with HCT-116 [3], the RatioGI50 entry is listed as “<=4.75”. Moreover, the inhibition entry in experiment [4] was “Active”. Also, in the experiment with U2OS, the Activity is on record as 33.1%.
Regarding `CC(C)[C@H](N)C(=O)OCCCOC1(c2ccc(Cl)cc2)c2ccccc2C(=O)N1Cc1ccccc1` (stereo not given in full), the GI50 came to 20 µM with HCT-116 [1] and 65 µM in the experiment with HCT-116 [2].
The matching figures for `O=C1c2ccccc2C(OCCCO)(c2ccc(Cl)cc2)N1Cc1ccc(Cl)cc1` (stereo not given): 60 µM and 68 µM.
`O=C1c2ccccc2C(OCCCO)(c2ccc(Cl)cc2)N1Cc1ccccc1` (stereo not given): the GI50 with HCT-116 [1] stood at 79 µM; with HCT-116 [2] it was 90 µM.
The matching figures for `N[C@H](C(=O)OCCCOC1(c2ccc(Cl)cc2)c2ccccc2C(=O)N1Cc1ccc(Cl)cc1)c1ccccc1` (stereo not given in full): 12 µM and 45 µM.
On the same counts, the results for `CC(C)(CO)COC1(c2ccc(Cl)cc2)c2ccccc2C(=O)N1Cc1ccccc1` (stereo not given) are 71 µM and 82 µM.
For the compound `CC(=O)OCC(C)(C)COC1(c2ccc(Cl)cc2)c2ccccc2C(=O)N1Cc1ccc(Cl)cc1` (stereo not given), the GI50 in the experiment with HCT-116 [1] is 35 µM; in the experiment on HCT-116 [2], 70 µM.
As to `N[C@H](C(=O)OCCCOC1(c2ccc(Cl)cc2)c2ccccc2C(=O)N1Cc1ccccc1)c1ccccc1` (stereo not given in full), the GI50 in the experiment with HCT-116 [1] was determined as 14 µM; in the experiment with HCT-116 [2], 43 µM.
For the compound `COc1ccc(C2=N[C@@H](c3ccc(Cl)cc3)[C@@H](c3ccc(Cl)cc3)N2C(=O)N2CCNC(=O)C2)c(OC(C)C)c1` [NUTLIN-3], the GI50 in the experiment on HCT-116 [1] turned out to be 8 µM; in the experiment with HCT-116 [2] it was 27 µM. Also, in the experiment with U2OS, the Activity is 31%.
As to `CC(=O)OCC(C)(C)COC1(c2ccc(Cl)cc2)c2ccccc2C(=O)N1Cc1ccccc1` (stereo not given), the values for the GI50 in the experiment on HCT-116 [1] and in the experiment with HCT-116 [2] were 38 µM and 70 µM, respectively.
`CC(=O)OCCCOC1(c2ccc(Cl)cc2)c2ccccc2C(=O)N1Cc1ccc(Cl)cc1` (stereo not given): the values for the 50% growth inhibitory concentration (GI50) with HCT-116 [1] and in the experiment on HCT-116 [2] were 46 µM and 68 µM, respectively.
In the case of `CC(C)(CO)COC1(c2ccc(Cl)cc2)c2ccccc2C(=O)N1Cc1ccc(Cl)cc1` (stereo not given), the 50% growth inhibitory concentration (GI50) in the experiment on HCT-116 [1] was 50 µM; with HCT-116 [2], 65 µM. In experiment [4], the inhibition entry is “Active”. Moreover, the Activity with U2OS was 2%.
